# Experimental data reported in ChEMBL document CHEMBL4602691, “Selective DYRK1A Inhibitor for the Treatment of Type 1 Diabetes: Discovery of 6-Azaindole Derivative GNF2133” (J Med Chem, 2020).
# How the values were obtained:
# [1] = Metabolic stability in mouse liver microsomes assessed as intrinsic clearance at 1 uM incubated for 30 mins by LC-MS/MS analysis; assay type: ADME, Microsome; conditions: 0.5 h
# [2] = Metabolic stability in human liver microsomes assessed as intrinsic clearance at 1 uM incubated for 30 mins by LC-MS/MS analysis; assay type: ADME, Microsome; conditions: 0.5 h
# [3] = Metabolic stability in rat liver microsomes assessed as intrinsic clearance at 1 uM incubated for 30 mins by LC-MS/MS analysis; assay type: ADME, Microsome; conditions: 0.5 h
# [4] = Aqueous solubility of compound at pH 6.8; assay type: physicochemical; conditions: aqueous medium
# [5] = Cmax in CD-1 mouse at 2 mg/kg, iv; assay type: ADME, organism-based; set-up: dose 2 mg/kg, route intravenous; conditions: in vivo
# [6] = Clast in CD-1 mouse at 30 mg/kg, po; assay type: ADME, organism-based; conditions: in vivo, read-out: Clast
# [7] = Clast in CD-1 mouse pancreas at 30 mg/kg, po; assay type: ADME, organism-based; conditions: in vivo, read-out: Clast
# [8] = AUC in CD-1 mouse at 2 mg/kg, iv; assay type: ADME, organism-based; conditions: in vivo
# [9] = Half life in CD-1 mouse at 2 mg/kg, iv; assay type: ADME, organism-based; conditions: in vivo
# [10] = Oral bioavailability in CD-1 mouse at 30 mg/kg; assay type: ADME, organism-based; conditions: in vivo
# [11] = Cmax in CD-1 mouse pancreas at 30 mg/kg, po; assay type: ADME, organism-based; set-up: dose 30 mg/kg, route oral
# [12] = Cmax in CD-1 mouse at 30 mg/kg, po; assay type: ADME, organism-based; set-up: dose 30 mg/kg, route oral; conditions: in vivo
# [13] = Tmax in CD-1 mouse pancreas at 30 mg/kg, po; assay type: ADME, organism-based
# [14] = Clast in CD-1 mouse at 2 mg/kg, iv; assay type: ADME, organism-based; conditions: in vivo, read-out: Clast
# [15] = AUC in CD-1 mouse pancreas at 30 mg/kg, po; assay type: ADME, organism-based
# [16] = Tmax in CD-1 mouse at 30 mg/kg, po; assay type: ADME, organism-based; conditions: in vivo
# [17] = Half life in CD-1 mouse pancreas at 30 mg/kg, po; assay type: ADME, organism-based
# [18] = Volume of distribution at steady state in CD-1 mouse at 2 mg/kg, iv; assay type: ADME, organism-based; conditions: in vivo, read-out: Vdss
# [19] = Tmax in CD-1 mouse at 2 mg/kg, iv; assay type: ADME, organism-based; conditions: in vivo
# [20] = Clearance in CD-1 mouse at 2 mg/kg, iv; assay type: ADME, organism-based; conditions: in vivo
# [21] = Half life in CD-1 mouse at 30 mg/kg, po; assay type: ADME, organism-based; conditions: in vivo
# [22] = AUC in CD-1 mouse at 30 mg/kg, po; assay type: ADME, organism-based; conditions: in vivo
smiles,measurement,setting,value
CC(C)Cn1cc(-c2ccncc2)c2ccncc21,CLH,[1],95%
same,CLH,[2],83%
same,CLH,[3],79%
CCN1CCN(C(=O)Nc2cc(-c3cn(C4CCOCC4)c4cnccc34)ccn2)CC1,CLH,[1],30%
same,CLH,[2],28%
same,solubility,[4],> 175 µM
same,CLH,[3],18%
c1ccc(Cn2cc(-c3ccncc3)c3ccncc32)cc1,CLH,[1],90%
same,CLH,[2],83%
same,CLH,[3],67%
C[C@@H]1CN(C(=O)Nc2cc(-c3cn([C@H]4CC[C@@](C)(O)CC4)c4cnccc34)ccn2)C[C@H](C)O1,CLH,[1],23%
same,CLH,[2],21%
same,solubility,[4],> 175 µM
same,CLH,[3],18%
Nc1cc(-c2cn(-c3ccccc3)c3cnccc23)ccn1,CLH,[1],94%
same,CLH,[2],87%
same,CLH,[3],86%
c1cc(-c2cn(C3CCOCC3)c3cnccc23)ccn1,CLH,[1],91%
same,CLH,[3],83%
CCN1CCN(C(=O)Nc2cc(-c3cn(C4CCOCC4)c4cnccc34)ccn2)CC1.Cl,Cmax,[5],1980 nM
same,concentration,[6],19 nM
same,concentration,[7],1320 nM
same,AUC,[8],3.27 µM·h
same,half-life,[9],6.6 h
same,bioavailability,[10],22.3%
same,Cmax,[11],13300 nM
same,Cmax,[12],1680 nM
same,Tmax,[13],3 h
same,concentration,[14],36.6 nM
same,AUC,[15],144 µM·h
same,Tmax,[16],3 h
same,half-life,[17],6.6 h
same,Vd,[18],11 L/kg
same,Tmax,[19],1.8 min
same,clearance,[20],23.5 mL/min/kg
same,half-life,[21],3.4 h
same,AUC,[22],11 µM·h
O=C(Nc1cc(-c2cn(C3CCOCC3)c3cnccc23)ccn1)NC1CC1,CLH,[1],71%
same,CLH,[3],42%
O=C(Nc1cc(-c2cn(C3CCOCC3)c3cnccc23)ccn1)N1CCOCC1,CLH,[1],23%
same,CLH,[2],21%
same,CLH,[3],25%
C[C@@H]1CN(C(=O)Nc2cc(-c3cn(C4CCOCC4)c4cnccc34)ccn2)C[C@H](C)O1,CLH,[1],23%
same,CLH,[3],18%
CC1(Cn2cc(-c3ccncc3)c3ccncc32)COC1,CLH,[1],90%
same,CLH,[2],39%
same,CLH,[3],69%
O=C(Nc1cc(-c2cn(-c3ccccc3)c3cnccc23)ccn1)NC1CC1,CLH,[1],70%
same,CLH,[2],21%
same,CLH,[3],60%
O=C(Nc1cc(-c2cn(-c3ccccc3)c3cnccc23)ccn1)C1CC1,CLH,[1],76%
same,CLH,[2],44%
same,CLH,[3],50%
c1ccc(-n2cc(-c3ccncc3)c3ccncc32)cc1,CLH,[1],97%
same,CLH,[2],92%
same,CLH,[3],90%
c1cc(-c2cn(CC3CC3)c3cnccc23)ccn1,CLH,[1],97%
same,CLH,[2],87%
same,CLH,[3],87%
CC1(C)CN(C(=O)Nc2cc(-c3cn(C4CCOCC4)c4cnccc34)ccn2)C1,CLH,[1],43%
same,CLH,[2],43%
same,CLH,[3],45%
